Measured values reported in US20170000129A1, “METHOD FOR TREATING MINERAL SLURRIES WITH A BIOCIDE” (priority 2015, published 2017).

Legend:
[1] = system: bacterial growth in kaolin slurry; experiment: Kaolin slurry preservation test: biocide-dosed 65% solids slurry plated on standard method agar, samples as treated; format: cell-based, bacteria
Procedure: (§1) In the comparative testing, dry kaolin was mixed with water to achieve a 65% solid slurry material. This material contained no biocide. The slurry was then split into 200 gram aliquots and dosed with different biocides at different concentration as shown in Tables 1-3. All samples were kept at 50° C. until the end of the testing, which was up to 28 days.
A number of different and known biocides were used in the study and they include glutaraldehyde (glute), 1,2 benzithiazolin-3-one (BIT), tetrahydro-3-5-methyl-2H-1,3,5-thiadizine-2-thione (thione), isothiazoline (ISO), bronopol (BNPD) or orthophenyl phenate (OPP). For shorthand purposes, the study refers to the tradename of the biocide, which is found in the above listing of the biocides. Metam sodium is designated as SMDC and MDTCMA is used without change
(§2) The protocol for the testing of each sample is as follows: • 1) dosed with a recorded level of biocide; • 2) mixed for 24 hours contact time and plated using standard method agar for bacterial growth; • 3) remixed daily for 1 hour and retested for bacterial growth at Day 3; • 4) remixed daily for 1 hour and retested for bacterial growth at Day 7; • 5) remixed daily for 1 hour and retested for bacterial growth at Day 14; • 6) on day 20, samples were split into two containers: one container was inoculated (or challenged) with ˜10^5 cfu/ml bacteria, the other was left “as treated”, the challenge material was obtained from a contaminated kaolin product and is assumed to be representative of the types of bacteria that are seen in the kaolin industry, and the two sets of samples were prepared for Day 21 testing; • 7) both sets were remixed daily for 1 hour and retested for bacterial growth at Day 21; and • 8) both sets remixed daily for 1 hour and retested for bacterial growth at Day 28.
Different contact times were used to see how quickly the bacterial population was effected by the biocide.

[2] = system: bacteria from a contaminated kaolin product; experiment: Kaolin slurry preservation test, challenge: on day 20 samples inoculated with ~10^5 cfu/ml bacteria from a contaminated kaolin product; format: cell-based
Procedure: as §1, §2

CN1CSC(=S)N(C)C1 [24% Thione, tetrahydro-3,5-dimethyl-2H-1,3,5-thiadiazine-2-thione, reference compound]
Log Red, contact time 1 day ([1]; 500 ppm, Table 2): 0 | Log Red, contact time 3 day ([1]; 500 ppm, Table 2): 3 | Log Red, contact time 7 day ([1]; 500 ppm, Table 2): 4 | Log Red, contact time 14 day ([1]; 500 ppm, Table 2): 4 | Log Red, contact time 21 day ([1]; 500 ppm, Table 2): 5 | Log Red, contact time 28 day ([1]; 500 ppm, Table 2): 5 | cfu/mL, contact time 1 day ([1]; 500 ppm, Table 2): 13,340,000 cfu/mL | cfu/mL, contact time 3 day ([1]; 500 ppm, Table 2): 11,000 cfu/mL | cfu/mL, contact time 7 day ([1]; 500 ppm, Table 2): 5,600 cfu/mL | cfu/mL, contact time 14 day ([1]; 500 ppm, Table 2): 2,100 cfu/mL | cfu/mL, contact time 21 day ([1]; 500 ppm, Table 2): 1,100 cfu/mL | cfu/mL, contact time 28 day ([1]; 500 ppm, Table 2): 800 cfu/mL | Log Red, contact time 1 day ([1]; 500 ppm, Table 3): 2 | Log Red, contact time 3 day ([1]; 500 ppm, Table 3): 2 | Log Red, contact time 7 day ([1]; 500 ppm, Table 3): 2 | Log Red, contact time 14 day ([1]; 500 ppm, Table 3): 3 | Log Red, contact time 21 day ([1]; 500 ppm, Table 3): 2 | Log Red, contact time 28 day ([1]; 500 ppm, Table 3): 2 | cfu/mL, contact time 1 day ([1]; 500 ppm, Table 3): 3,300 cfu/mL | cfu/mL, contact time 3 day ([1]; 500 ppm, Table 3): 100 cfu/mL | cfu/mL, contact time 7 day ([1]; 500 ppm, Table 3): 100 cfu/mL | cfu/mL, contact time 14 day ([1]; 500 ppm, Table 3): 100 cfu/mL | cfu/mL, contact time 21 day ([1]; 500 ppm, Table 3): 100 cfu/mL | cfu/mL, contact time 28 day ([1]; 500 ppm, Table 3): 100 cfu/mL | Log Red, contact time 1 day ([1]; 1000 ppm, Table 2): 1 | Log Red, contact time 3 day ([1]; 1000 ppm, Table 2): 4 | Log Red, contact time 7 day ([1]; 1000 ppm, Table 2): 4 | Log Red, contact time 14 day ([1]; 1000 ppm, Table 2): 5 | Log Red, contact time 21 day ([1]; 1000 ppm, Table 2): 5 | Log Red, contact time 28 day ([1]; 1000 ppm, Table 2): 5 | cfu/mL, contact time 1 day ([1]; 1000 ppm, Table 2): 6,670,000 cfu/mL | cfu/mL, contact time 3 day ([1]; 1000 ppm, Table 2): 6,800 cfu/mL | cfu/mL, contact time 7 day ([1]; 1000 ppm, Table 2): 2,600 cfu/mL | cfu/mL, contact time 14 day ([1]; 1000 ppm, Table 2): 1,200 cfu/mL | cfu/mL, contact time 21 day ([1]; 1000 ppm, Table 2): 300 cfu/mL | cfu/mL, contact time 28 day ([1]; 1000 ppm, Table 2): 200 cfu/mL | Log Red, contact time 1 day ([1]; 1000 ppm, Table 3): 3 | Log Red, contact time 3 day ([1]; 1000 ppm, Table 3): 2 | Log Red, contact time 7 day ([1]; 1000 ppm, Table 3): 2 | Log Red, contact time 14 day ([1]; 1000 ppm, Table 3): 3 | Log Red, contact time 21 day ([1]; 1000 ppm, Table 3): 2 | Log Red, contact time 28 day ([1]; 1000 ppm, Table 3): 2 | cfu/mL, contact time 1 day ([1]; 1000 ppm, Table 3): 100 cfu/mL | cfu/mL, contact time 3 day ([1]; 1000 ppm, Table 3): 100 cfu/mL | cfu/mL, contact time 7 day ([1]; 1000 ppm, Table 3): 100 cfu/mL | cfu/mL, contact time 14 day ([1]; 1000 ppm, Table 3): 100 cfu/mL | cfu/mL, contact time 21 day ([1]; 1000 ppm, Table 3): 100 cfu/mL | cfu/mL, contact time 28 day ([1]; 1000 ppm, Table 3): 100 cfu/mL | Log Red, 21 day Challenge ([2]; 500 ppm, Table 2): 3 | Log Red, 28 day Challenge ([2]; 500 ppm, Table 2): 4 | cfu/mL, 21 day Challenge ([2]; 500 ppm, Table 2): 39,000 cfu/mL | cfu/mL, 28 day Challenge ([2]; 500 ppm, Table 2): 3,400 cfu/mL | Log Red, 21 day Challenge ([2]; 500 ppm, Table 3): 5 | Log Red, 28 day Challenge ([2]; 500 ppm, Table 3): 5 | cfu/mL, 21 day Challenge ([2]; 500 ppm, Table 3): 100 cfu/mL | cfu/mL, 28 day Challenge ([2]; 500 ppm, Table 3): 100 cfu/mL | Log Red, 21 day Challenge ([2]; 1000 ppm, Table 2): 5 | Log Red, 28 day Challenge ([2]; 1000 ppm, Table 2): 4 | cfu/mL, 21 day Challenge ([2]; 1000 ppm, Table 2): 900 cfu/mL | cfu/mL, 28 day Challenge ([2]; 1000 ppm, Table 2): 1,500 cfu/mL | Log Red, 21 day Challenge ([2]; 1000 ppm, Table 3): 5 | Log Red, 28 day Challenge ([2]; 1000 ppm, Table 3): 5 | cfu/mL, 21 day Challenge ([2]; 1000 ppm, Table 3): 100 cfu/mL | cfu/mL, 28 day Challenge ([2]; 1000 ppm, Table 3): 100 cfu/mL | biocide effectiveness after inoculation, overall result of the studies [2]: most effective biocides

CNC(=S)[S-].[Na+] [42% SMDC, sodium N-methyldithiocarbamate]
Log Red, contact time 1 day ([1]; 500 ppm, Table 1): 0 | Log Red, contact time 3 day ([1]; 500 ppm, Table 1): 1 | Log Red, contact time 7 day ([1]; 500 ppm, Table 1): 3 | cfu/mL, contact time 1 day ([1]; 500 ppm, Table 1): 24,340,000 cfu/mL | cfu/mL, contact time 3 day ([1]; 500 ppm, Table 1): 2,600,000 cfu/mL | cfu/mL, contact time 7 day ([1]; 500 ppm, Table 1): 30,000 cfu/mL | performance against the BIT biocide when measuring log reduction ([1]; 500 ppm, Table 1): performed at least as well as the BIT biocide | Log Red, contact time 1 day ([1]; 500 ppm, Table 2): 0 | Log Red, contact time 3 day ([1]; 500 ppm, Table 2): 2 | Log Red, contact time 7 day ([1]; 500 ppm, Table 2): 4 | Log Red, contact time 14 day ([1]; 500 ppm, Table 2): 4 | Log Red, contact time 21 day ([1]; 500 ppm, Table 2): 5 | Log Red, contact time 28 day ([1]; 500 ppm, Table 2): 4 | cfu/mL, contact time 1 day ([1]; 500 ppm, Table 2): 19,630,000 cfu/mL | cfu/mL, contact time 3 day ([1]; 500 ppm, Table 2): 780,002 cfu/mL | cfu/mL, contact time 7 day ([1]; 500 ppm, Table 2): 4,000 cfu/mL | cfu/mL, contact time 14 day ([1]; 500 ppm, Table 2): 3,000 cfu/mL | cfu/mL, contact time 21 day ([1]; 500 ppm, Table 2): 1,800 cfu/mL | cfu/mL, contact time 28 day ([1]; 500 ppm, Table 2): 1,800 cfu/mL | Log Red, contact time 1 day ([1]; 1000 ppm, Table 1): 0 | Log Red, contact time 3 day ([1]; 1000 ppm, Table 1): 1 | Log Red, contact time 7 day ([1]; 1000 ppm, Table 1): 5 | cfu/mL, contact time 1 day ([1]; 1000 ppm, Table 1): 16,880,000 cfu/mL | cfu/mL, contact time 3 day ([1]; 1000 ppm, Table 1): 2,200,000 cfu/mL | cfu/mL, contact time 7 day ([1]; 1000 ppm, Table 1): 1,000 cfu/mL | performance against the BIT biocide when measuring log reduction ([1]; 1000 ppm, Table 1): far superior | Log Red, contact time 1 day ([1]; 1000 ppm, Table 2): 0 | Log Red, contact time 3 day ([1]; 1000 ppm, Table 2): 4 | Log Red, contact time 7 day ([1]; 1000 ppm, Table 2): 4 | Log Red, contact time 14 day ([1]; 1000 ppm, Table 2): 4 | Log Red, contact time 21 day ([1]; 1000 ppm, Table 2): 5 | Log Red, contact time 28 day ([1]; 1000 ppm, Table 2): 4 | cfu/mL, contact time 1 day ([1]; 1000 ppm, Table 2): 12,560,000 cfu/mL | cfu/mL, contact time 3 day ([1]; 1000 ppm, Table 2): 4,800 cfu/mL | cfu/mL, contact time 7 day ([1]; 1000 ppm, Table 2): 2,400 cfu/mL | cfu/mL, contact time 14 day ([1]; 1000 ppm, Table 2): 2,600 cfu/mL | cfu/mL, contact time 21 day ([1]; 1000 ppm, Table 2): 900 cfu/mL | cfu/mL, contact time 28 day ([1]; 1000 ppm, Table 2): 900 cfu/mL | Log Red, contact time 1 day ([1]; 1000 ppm, Table 3): 3 | Log Red, contact time 3 day ([1]; 1000 ppm, Table 3): 2 | Log Red, contact time 7 day ([1]; 1000 ppm, Table 3): 2 | Log Red, contact time 14 day ([1]; 1000 ppm, Table 3): 3 | Log Red, contact time 21 day ([1]; 1000 ppm, Table 3): 2 | Log Red, contact time 28 day ([1]; 1000 ppm, Table 3): 2 | cfu/mL, contact time 1 day ([1]; 1000 ppm, Table 3): 200 cfu/mL | cfu/mL, contact time 3 day ([1]; 1000 ppm, Table 3): 100 cfu/mL | cfu/mL, contact time 7 day ([1]; 1000 ppm, Table 3): 100 cfu/mL | cfu/mL, contact time 14 day ([1]; 1000 ppm, Table 3): 100 cfu/mL | cfu/mL, contact time 21 day ([1]; 1000 ppm, Table 3): 100 cfu/mL | cfu/mL, contact time 28 day ([1]; 1000 ppm, Table 3): 100 cfu/mL | Log Red, contact time 1 day ([1]; 1500 ppm, Table 3): 3 | Log Red, contact time 3 day ([1]; 1500 ppm, Table 3): 2 | Log Red, contact time 7 day ([1]; 1500 ppm, Table 3): 2 | Log Red, contact time 14 day ([1]; 1500 ppm, Table 3): 3 | Log Red, contact time 21 day ([1]; 1500 ppm, Table 3): 2 | Log Red, contact time 28 day ([1]; 1500 ppm, Table 3): 2 | cfu/mL, contact time 1 day ([1]; 1500 ppm, Table 3): 100 cfu/mL | cfu/mL, contact time 3 day ([1]; 1500 ppm, Table 3): 100 cfu/mL | cfu/mL, contact time 7 day ([1]; 1500 ppm, Table 3): 100 cfu/mL | cfu/mL, contact time 14 day ([1]; 1500 ppm, Table 3): 100 cfu/mL | cfu/mL, contact time 21 day ([1]; 1500 ppm, Table 3): 100 cfu/mL | cfu/mL, contact time 28 day ([1]; 1500 ppm, Table 3): 100 cfu/mL | biocide efficacy compared with known biocides ([1]; Table 2, up to 28 days): comparable biocide efficacy as compared to known biocides | biocide effectiveness compared with thione ([1]; Table 3, up to the 28 day testing, not challenge testing, 1000 and 1500 ppm): performed on a par with the thione | Log Red, 21 day Challenge ([2]; 500 ppm, Table 2): 3 | Log Red, 28 day Challenge ([2]; 500 ppm, Table 2): 3 | cfu/mL, 21 day Challenge ([2]; 500 ppm, Table 2): 105,000 cfu/mL | cfu/mL, 28 day Challenge ([2]; 500 ppm, Table 2): 16,000 cfu/mL | Log Red, 21 day Challenge ([2]; 1000 ppm, Table 2): 3 | Log Red, 28 day Challenge ([2]; 1000 ppm, Table 2): 3 | cfu/mL, 21 day Challenge ([2]; 1000 ppm, Table 2): 59,000 cfu/mL | cfu/mL, 28 day Challenge ([2]; 1000 ppm, Table 2): 16,000 cfu/mL | Log Red, 21 day Challenge ([2]; 1000 ppm, Table 3): 2 | Log Red, 28 day Challenge ([2]; 1000 ppm, Table 3): 1 | cfu/mL, 21 day Challenge ([2]; 1000 ppm, Table 3): 384,000 cfu/mL | cfu/mL, 28 day Challenge ([2]; 1000 ppm, Table 3): 3,000,000 cfu/mL | Log Red, 21 day Challenge ([2]; 1500 ppm, Table 3): 5 | Log Red, 28 day Challenge ([2]; 1500 ppm, Table 3): 5 | cfu/mL, 21 day Challenge ([2]; 1500 ppm, Table 3): 100 cfu/mL | cfu/mL, 28 day Challenge ([2]; 1500 ppm, Table 3): 100 cfu/mL | biocide effectiveness in challenge testing ([2]; Table 3, challenge testing): comparable to thione | biocide effectiveness after inoculation, overall result of the studies [2]: most effective biocides
